IC50 data for 13 molecules are collected here from patent EP0600092A1, “THIAZOLE DERIVATIVE” (OTSUKA PHARMACEUTICAL CO., LTD., priority 1992, dated 1993).

This assay deals with human neutrophilic leukocyctes. The assay can be described thus: Activity for inhibiting the generation of O2- in human neutrophilic leukocytes (FMLP-stimulated, ferricytochrome C method). The assay is classed as cell-based. The following applies: Leukocyte, O₂⁻ generation stimulated with 3×10⁻⁷ M FMLP at 37°C, cytochalasin B 5 µg/ml, pre-incubated with test compound 20 minutes, 4 minutes reduction, absorbance 550 nm, read-out: IC₅₀. As for the experimental part:
Activity for inhibiting the generation of O₂⁻ in human neutrophilic leukocyctes
Human neutrophilic leukocyctes were prepared in accordance with the method of M. Markert et al. [Methods in Enzymology, vol. 105; pp. 358-365 (1984)]. That is, a whole blood obtained from a healthy adult and treated by anticoagulation method was subjected to a dextranhypotonic treatment to obtain leukocyte cells. The leukocycte cells were then subjected to a density gradient ultracentrifugation by Ficoll-Paque to obtain a neutrophilic leukocyte fraction.
O₂⁻ generation was examined by the ferricytochrome C method in accordance with the mehtod of B.N. Cronstein et al. [Journal of Experimental Medicine, vol. 158, pp. 1160-1177 (1983)]. That is, […] of neutrophilic leukocytes were stimulated with 3×10⁻⁷ M of N-formyl-L-methionyl-L-leucyl-L-phenylalanine (FMLP) at 37°C in the presence of 1.3 mg/ml of ferricytochrome C and 5 µg/ml of cytochalasin B in a Hepes-buffered Hank's solution (pH 7.4); the amount of ferricytochrome C formed by 4 minutes of reduction was determined by measuring an absorbance at a wavelength of 550 nm using a spectrophotometer; an absorbance in the presence of 25.1 µg/ml of superoxide dismutase (SOD) was also measured; the difference of the two absorbances was taken as the amount of O₂⁻ generated. Each test compound was dissolved in dimethyl sulfoxide (DMSO); the solution was added to neutrophilic leukocytes before the addition of FMLP; then, the neutrophilic leukocytes were pre-incubated at 37°C for 20 minutes. By using the amount of O₂⁻ generated when the test compound solution was added and the amount of O₂⁻ generated when only the solvent (DMSO) was added, a ratio of inhibition (%) was calculated, and the activity for inhibiting O₂⁻ generation was expressed as 50% inhibitory concentration (IC₅₀).
For the molecule `CCOc1ccc(-c2nc(-c3ccc(C(N)=S)cc3)cs2)cc1OCC` [Example 17], the IC50 worked out at 66 nM.
Under `CCOc1ccc(-c2nc(-c3ccc(C(=N)NO)cc3)cs2)cc1OCC` [Example 18] stands 13 nM; under `CCOc1ccc(-c2nc(-c3ccc(C(=N)SC)cc3)cs2)cc1OCC` [Example 19], 200 nM.
As to `CCOc1ccc(-c2nc(-c3ccc(NC(N)=S)cc3)cs2)cc1OCC` [Example 20], the IC50 stood at 30 nM.
With `CCOc1ccc(-c2nc(-c3cnccn3)cs2)cc1OCC` [Example 23], the IC50 worked out at 72 nM.
`CCOc1ccc(-c2nc(-c3cccc(C(N)=S)n3)cs2)cc1OCC` [Example 24]: the IC50 came out at 55 nM.
For the molecule `CCOc1ccc(-c2nc(-c3cccc(C(=N)SC)n3)cs2)cc1OCC` [Example 25], the IC50 turned out to be 330 nM.
Take `CCOc1ccc(-c2nc(-c3cc(N4CCN(C)CC4)ccn3)cs2)cc1OCC` [Example 27]: the IC50 was found to be 750 nM.
Under `CCOc1ccc(-c2nc(-c3cccc(C(O)CN4CCN(C)CC4)n3)cs2)cc1OCC` (stereo not shown) [Example 28] stands 450 nM; under `CCOc1ccc(-c2nc(-c3cccc(C(=N)NO)n3)cs2)cc1OCC` [Example 29], 230 nM; under `CCOc1ccc(-c2nc(-c3ccc(O)c(-c4nnn[nH]4)c3)cs2)cc1OCC` [Test compound 5, 2-(3,4-Diethoxyphenyl)-4-[3-(1,2,3,4-tetrazol-5-yl)-4-hydroxyphenyl]thiazole], 240 nM.
Under `COc1ccc(-c2nc(-c3ccc(O)c(C(=O)NO)c3)cs2)cc1OC` [Test compound 13, Disodium [2-(3,4-dimethoxyphenyl)-4-thiazolyl]salicylhydroxamate] stands 600 nM.
Turning to `COc1ccc(-c2nc(-c3cccc(NC(=N)SC)c3)cs2)cc1OC` [Test compound 16, 1-{3-[2-(3,4-Dimethoxyphenyl)-4-thiazolyl]phenyl}-2-methylisothiourea hydroiodide], the IC50 came to 350 nM.
